Data: PMC6112376, “Comprehensive Analyses and Prioritization of Tox21 10K Chemicals Affecting Mitochondrial Function by in-Depth Mechanistic Studies” (Environmental Health Perspectives, 2018)
Structures can show the parent of a compound that is named as a salt. Where two headings read alike, the source gives them in different places.

How the values were obtained:
HepG2 cells [1] = assay: cells; settings: Homo sapiens; for IC50: HepG2, read-out: MMP assays IC50 (µM) HepG2; for Emax: HepG2, read-out: MMP assays efficacy (%) HepG2
rat primary hepatocytes [2] = system: rat primary hepatocytes
rat primary hepatocytes [3] = assay: MMP assay in rat primary hepatocytes; settings: for IC50: Rattus norvegicus, Hepatocyte, read-out: MMP assays IC50 (µM) Rat Hepatocytes
HepG2 cells [4] = settings: cited from earlier work
[5] = read-out: MMP assays IC50 (µM) qHTS-HepG2
[6] = read-out: MMP assays IC50 (µM), qHTS-HepG2

## C#C[C@]1(O)CC[C@H]2[C@@H]3CCC4=CCCC[C@@H]4[C@H]3C(=C)C[C@@]21CC [Desogestrel]
HepG2 cells [1]
  IC50: 27.5 µM
  Emax: 84%
Rat primary hepatocytes [2]
  MMP assays efficacy (%) Rat Hepatocytes: inactive
Rat primary hepatocytes [3]
  MMP assays IC50 (µM) Rat Hepatocytes: inactive
HepG2 cells [4]
  MMP assays efficacy (%) qHTS-HepG2: -125±21%
HepG2 cells [4]; [5]
  IC50: 22.3 ± 2.11 µM

## CCC(C)c1cccc(C(C)CC)c1O (stereo not drawn) [2,6-Di(butan-2-yl)phenol]
HepG2 cells [1]
  IC50: 15.8 µM
  Emax: 110%
Rat primary hepatocytes [2]
  MMP assays efficacy (%) Rat Hepatocytes: inactive
Rat primary hepatocytes [3]
  MMP assays IC50 (µM) Rat Hepatocytes: inactive
HepG2 cells [4]
  MMP assays efficacy (%) qHTS-HepG2: -85±30%
HepG2 cells [4]; [5]
  IC50: 13.7 ± 3.19 µM

## CO[C@H]1C[C@@H]2CC[C@@H](C)[C@@](O)(O2)C(=O)C(=O)N2CCCC[C@H]2C(=O)O[C@H]([C@H](C)C[C@@H]2CC[C@@H](O)[C@H](OC)C2)CC(=O)[C@H](C)/C=C(\C)[C@@H](O)[C@@H](OC)C(=O)[C@H](C)C[C@H](C)/C=C/C=C/C=C/1C [Sirolimus]
HepG2 cells [1]
  IC50: 17.3 µM
  Emax: 95%
Rat primary hepatocytes [2]
  MMP assays efficacy (%) Rat Hepatocytes: -61±8%
Rat primary hepatocytes [3]
  IC50: 20.6 ± 1.68 µM
HepG2 cells [4]
  MMP assays efficacy (%) qHTS-HepG2: -95±3%
HepG2 cells [4]; [6]
  IC50: 20.1 ± 2.07 µM

## CCCN(CC1CC1)c1c([N+](=O)[O-])cc(C(F)(F)F)cc1[N+](=O)[O-] [Profluralin]
HepG2 cells [1]
  IC50: 39.8 µM
  Emax: 58%
Rat primary hepatocytes [2]
  MMP assays efficacy (%) Rat Hepatocytes: -37±10%
Rat primary hepatocytes [3]
  IC50: 25.1 ± 35.4 µM
HepG2 cells [4]
  MMP assays efficacy (%) qHTS-HepG2: -76±20%
HepG2 cells [4]; [6]
  IC50: 21.7 ± 8.04 µM

## O=C=Nc1ccc(Cl)cc1 [4-Chlorophenyl isocyanate]
HepG2 cells [1]
  IC50: 0.71 µM
  Emax: 99%
Rat primary hepatocytes [2]
  MMP assays efficacy (%) Rat Hepatocytes: -98±7%
Rat primary hepatocytes [3]
  IC50: 1.56 ± 0.39 µM
HepG2 cells [4]
  MMP assays efficacy (%) qHTS-HepG2: -110±18%
HepG2 cells [4]; [5]
  IC50: 0.27 ± 0.11 µM

## CC(=O)Oc1ccc(C2(c3ccc(OC(C)=O)cc3)C(=O)Nc3ccccc32)cc1 [Oxyphenisatin acetate]
HepG2 cells [1]
  IC50: 17.3 µM
  Emax: 118%
Rat primary hepatocytes [2]
  MMP assays efficacy (%) Rat Hepatocytes: -71±28%
Rat primary hepatocytes [3]
  IC50: 20.6 ± 1.68 µM
HepG2 cells [4]
  MMP assays efficacy (%) qHTS-HepG2: -63±8%
HepG2 cells [4]; [6]
  IC50: 5.49 ± 4.6 µM

## CCC[C@@]1(CCc2ccccc2)CC(O)=C([C@H](CC)c2cccc(NS(=O)(=O)c3ccc(C(F)(F)F)cn3)c2)C(=O)O1 [Tipranavir]
HepG2 cells [1]
  IC50: 17.3 µM
  Emax: 100%
Rat primary hepatocytes [2]
  MMP assays efficacy (%) Rat Hepatocytes: -96±11%
Rat primary hepatocytes [3]
  IC50: 29.2 ± 2.37 µM
HepG2 cells [4]
  MMP assays efficacy (%) qHTS-HepG2: -93±5%
HepG2 cells [4]; [6]
  IC50: 26.6 ± 4.94 µM

## C[C@]12CC[C@@H]3c4ccc(O)cc4CC[C@H]3[C@@H]1CC[C@H]2O [Compound 17alpha-Estradiol]
HepG2 cells [1]
  IC50: 22.4 µM
  Emax: 105%
Rat primary hepatocytes [2]
  MMP assays efficacy (%) Rat Hepatocytes: -64±3%
Rat primary hepatocytes [3]
  IC50: 35.5 µM
HepG2 cells [4]
  MMP assays efficacy (%) qHTS-HepG2: -106±11%
HepG2 cells [4]; [5]
  IC50: 37.8 ± 13.9 µM

## CCCCCCCC(=O)Oc1c(Br)cc(C#N)cc1Br [Bromoxynil octanoate]
HepG2 cells [1]
  IC50: 31.6 µM
  Emax: 125%
Rat primary hepatocytes [2]
  MMP assays efficacy (%) Rat Hepatocytes: -38±2%
Rat primary hepatocytes [3]
  IC50: 28.6 ± 22.7 µM
HepG2 cells [4]
  MMP assays efficacy (%) qHTS-HepG2: -109±13%
HepG2 cells [4]; [5]
  IC50: 15.3 ± 5.08 µM

## ClC1=C(Cl)C2(Cl)C(CBr)CC1(Cl)C2(Cl)Cl (stereo not drawn) [Bromociclen]
HepG2 cells [1]
  IC50: 15.5 µM
  Emax: 47%
Rat primary hepatocytes [2]
  MMP assays efficacy (%) Rat Hepatocytes: inactive
Rat primary hepatocytes [3]
  MMP assays IC50 (µM) Rat Hepatocytes: inactive
HepG2 cells [4]
  MMP assays efficacy (%) qHTS-HepG2: -87±13%
HepG2 cells [4]; [5]
  IC50: 33.2 ± 3.47 µM

## O=C1c2ccccc2C(=O)c2cc(O)ccc21 [Compound 2-Hydroxyanthraquinone]
HepG2 cells [1]
  IC50: 7.08 µM
  Emax: 120%
Rat primary hepatocytes [2]
  MMP assays efficacy (%) Rat Hepatocytes: -68±21%
Rat primary hepatocytes [3]
  IC50: 17.3 ± 6.83 µM
HepG2 cells [4]
  MMP assays efficacy (%) qHTS-HepG2: -124±4%
HepG2 cells [4]; [5]
  IC50: 3.31 ± 1.38 µM

## Oc1c(Cl)c(Cl)cc(Cl)c1Cl [2,3,5,6-Tetrachlorophenol]
HepG2 cells [1]
  IC50: 8.91 µM
  Emax: 92%
Rat primary hepatocytes [2]
  MMP assays efficacy (%) Rat Hepatocytes: -77±36%
Rat primary hepatocytes [3]
  IC50: 9.2 ± 2.96 µM
HepG2 cells [4]
  MMP assays efficacy (%) qHTS-HepG2: -94±3%
HepG2 cells [4]; [5]
  IC50: 6.42 ± 2.38 µM

## CC(C)C(C(=O)OC(C#N)c1cccc(Oc2ccccc2)c1)c1ccc(Cl)cc1 (stereo not drawn) [Fenvalerate]
HepG2 cells [1]
  IC50: 35.5 µM
  Emax: 60%
Rat primary hepatocytes [2]
  MMP assays efficacy (%) Rat Hepatocytes: inactive
Rat primary hepatocytes [3]
  MMP assays IC50 (µM) Rat Hepatocytes: inactive
HepG2 cells [4]
  MMP assays efficacy (%) qHTS-HepG2: -69±10%
HepG2 cells [4]; [6]
  IC50: 32.1 µM

## CC(COc1ccccc1)N(CCCl)Cc1ccccc1 (stereo not drawn) [Phenoxybenzamine hydrochloride]
HepG2 cells [1]
  IC50: 35.5 µM
  Emax: 63%
Rat primary hepatocytes [2]
  MMP assays efficacy (%) Rat Hepatocytes: inactive
Rat primary hepatocytes [3]
  MMP assays IC50 (µM) Rat Hepatocytes: inactive
HepG2 cells [4]
  MMP assays efficacy (%) qHTS-HepG2: -99±7%
HepG2 cells [4]; [6]
  IC50: 48.8 ± 9.17 µM

## C[C@H]1O[C@@H](O[C@H]2[C@@H](O)C[C@H](O[C@H]3[C@@H](O)C[C@H](O[C@H]4CC[C@@]5(C)[C@H](CC[C@@H]6[C@@H]5C[C@@H](O)[C@]5(C)[C@@H](C7=CC(=O)OC7)CC[C@]65O)C4)O[C@@H]3C)O[C@@H]2C)C[C@H](O)[C@@H]1O [Digoxin]
HepG2 cells [1]
  IC50: 0.13 µM
  Emax: 105%
Rat primary hepatocytes [2]
  MMP assays efficacy (%) Rat Hepatocytes: inactive
Rat primary hepatocytes [3]
  MMP assays IC50 (µM) Rat Hepatocytes: inactive
HepG2 cells [4]
  MMP assays efficacy (%) qHTS-HepG2: -71±8%
HepG2 cells [4]; [5]
  IC50: 0.52 ± 0.09 µM

## CN1C(C(=O)Nc2ccccn2)=C(O)c2ccccc2S1(=O)=O [Piroxicam]
HepG2 cells [1]
  IC50: 5.88 µM
  Emax: 103%
Rat primary hepatocytes [2]
  MMP assays efficacy (%) Rat Hepatocytes: -84±3%
Rat primary hepatocytes [3]
  IC50: 4.79 ± 1.53 µM
HepG2 cells [4]
  MMP assays efficacy (%) qHTS-HepG2: -109±18%
HepG2 cells [4]; [6]
  IC50: 8.21 ± 1.71 µM

## CC(C)OC(=O)C(O)(c1ccc(Cl)cc1)c1ccc(Cl)cc1 [Chloropropylate]
HepG2 cells [1]
  IC50: 44.7 µM
  Emax: 102%
Rat primary hepatocytes [2]
  MMP assays efficacy (%) Rat Hepatocytes: -66±32%
Rat primary hepatocytes [3]
  IC50: 43.8 ± 10.9 µM
HepG2 cells [4]
  MMP assays efficacy (%) qHTS-HepG2: -105±14%
HepG2 cells [4]; [5]
  IC50: 26.3 ± 3.64 µM

## CO[C@H]1C[C@@H]2CC[C@@H](C)[C@@](O)(O2)C(=O)C(=O)N2CCCC[C@H]2C(=O)O[C@H]([C@H](C)C[C@@H]2CC[C@@H](OCCO)[C@H](OC)C2)CC(=O)[C@H](C)/C=C(\C)[C@@H](O)[C@@H](OC)C(=O)[C@H](C)C[C@H](C)/C=C/C=C/C=C/1C [Everolimus]
HepG2 cells [1]
  IC50: 27.5 µM
  Emax: 92%
Rat primary hepatocytes [2]
  MMP assays efficacy (%) Rat Hepatocytes: -38±9%
Rat primary hepatocytes [3]
  IC50: 13 ± 7.49 µM
HepG2 cells [4]
  MMP assays efficacy (%) qHTS-HepG2: -96±20%
HepG2 cells [4]; [5]
  IC50: 19.9 ± 2.83 µM

## O=S(=O)(c1ccc(Cl)cc1)c1cc(Cl)c(Cl)cc1Cl [Tetradifon]
HepG2 cells [1]
  IC50: 17.8 µM
  Emax: 96%
Rat primary hepatocytes [2]
  MMP assays efficacy (%) Rat Hepatocytes: -77±25%
Rat primary hepatocytes [3]
  IC50: 12.1 ± 6.57 µM
HepG2 cells [4]
  MMP assays efficacy (%) qHTS-HepG2: -98±2%
HepG2 cells [4]; [6]
  IC50: 15.3 ± 7.43 µM

## O=C1c2cccc(O)c2C(=O)c2c(O)cccc21 [Danthron]
HepG2 cells [1]
  IC50: 15.5 µM
  Emax: 91%
Rat primary hepatocytes [2]
  MMP assays efficacy (%) Rat Hepatocytes: -40±18%
Rat primary hepatocytes [3]
  IC50: 5.97 ± 5.35 µM
HepG2 cells [4]
  MMP assays efficacy (%) qHTS-HepG2: -78±3%
HepG2 cells [4]; [5]
  IC50: 4.66 ± 1.19 µM

## c1ccc(-c2cccc(-c3ccccc3)c2)cc1 [1,1':3',1''-Terphenyl]
HepG2 cells [1]
  IC50: 50.1 µM
  Emax: 90%
Rat primary hepatocytes [2]
  MMP assays efficacy (%) Rat Hepatocytes: -53±28%
Rat primary hepatocytes [3]
  IC50: 29.6 ± 27.7 µM
HepG2 cells [4]
  MMP assays efficacy (%) qHTS-HepG2: -80±13%
HepG2 cells [4]; [5]
  IC50: 47.9 ± 14.3 µM

## COc1cccc2c1C(=O)c1c(O)c3c(c(O)c1C2=O)C[C@@](O)(C(=O)CO)C[C@@H]3O[C@H]1C[C@H](N)[C@H](O[C@@H]2CCCCO2)[C@H](C)O1 [Pirarubicin]
HepG2 cells [1]
  IC50: 0.69 µM
  Emax: 53%
Rat primary hepatocytes [2]
  MMP assays efficacy (%) Rat Hepatocytes: -39±8%
Rat primary hepatocytes [3]
  IC50: 0.03 µM
HepG2 cells [4]
  MMP assays efficacy (%) qHTS-HepG2: -68±19%
HepG2 cells [4]; [6]
  IC50: 0.6 ± 0.46 µM

## Nc1ccc(-c2ccc(N)cc2)cc1 [Benzidine]
HepG2 cells [1]
  IC50: 15.8 µM
  Emax: 79%
Rat primary hepatocytes [2]
  MMP assays efficacy (%) Rat Hepatocytes: -69±64%
Rat primary hepatocytes [3]
  IC50: 2.51 ± 3.54 µM
HepG2 cells [4]
  MMP assays efficacy (%) qHTS-HepG2: -59±14%
HepG2 cells [4]; [5]
  IC50: 24.3 ± 4.5 µM

## Oc1c(Cl)c(Cl)c(Cl)c(Cl)c1Cl [Pentachlorophenol]
HepG2 cells [1]
  IC50: 8.9 µM
  Emax: 99%
Rat primary hepatocytes [2]
  MMP assays efficacy (%) Rat Hepatocytes: -119±31%
Rat primary hepatocytes [3]
  IC50: 4.17 ± 0.75 µM
HepG2 cells [4]
  MMP assays efficacy (%) qHTS-HepG2: -97±20%
HepG2 cells [4]; [6]
  IC50: 3.09 ± 0.6 µM

## Oc1c(Cl)cc(Cl)cc1Sc1cc(Cl)cc(Cl)c1O [Bithionol]
HepG2 cells [1]
  IC50: 0.97 µM
  Emax: 92%
Rat primary hepatocytes [2]
  MMP assays efficacy (%) Rat Hepatocytes: -109±25%
Rat primary hepatocytes [3]
  IC50: 2.47 ± 1.39 µM
HepG2 cells [4]
  MMP assays efficacy (%) qHTS-HepG2: -97±9%
HepG2 cells [4]; [5]
  IC50: 0.66 ± 0.52 µM
